Experimental data published in publication PMC4863456 (Journal of Chemical Information and Modeling, 2015).

Tests used:
[1] = test system: CB1 K3.28 mutated to alanine; conditions: K3.28 to alanine; cited from earlier work
[2] = test system: CB1 W5.43 mutated to alanine; conditions: W5.43 to alanine; cited from earlier work
[3] = test system: CB1 M6.55A mutation; conditions: M6.55 to alanine; cited from earlier work
[4] = test system: CB1 M6.55A mutation; assay: Published binding data, M6.55A mutation; conditions: M6.55 to alanine

- decrease in binding affinity upon mutation, as energy [4]: 0.65 kcal/mol
Compound: Cc1c(C(=O)NN2CCCCC2)nn(-c2ccc(Cl)cc2Cl)c1-c1ccc(Cl)cc1 [rimonabant, N-(Piperidin-1-yl)-5-(4-Chlorophenyl)-1-(2,4-Dichlorophenyl)-4-Methyl-1H -Pyrazole-3-Carboxamide]
- decrease in experimental binding affinity upon mutation [1]: 17.2 fold
- decrease in experimental binding affinity upon mutation [2]: > 1000 fold
- decrease in binding affinity upon mutation [3]: 3 fold
